Assays:
[1] = test system: cytochrome P450 3A4; conditions: cited from earlier work
[2] = test system: calcineurin; conditions: at concentrations up to 2 μM; cited from earlier work
[3] = test system: cytochrome P450 2B6; conditions: cited from earlier work
[4] = target: P-glycoprotein (Homo sapiens, UniProt P08183); conditions: cited from earlier work
[5] = test system: stimulated human peripheral blood mononuclear cells; conditions: cited from earlier work
[6] = test system: ROS; experiment: brain ROS levels after anesthesia/surgery; design: species or system mice; conditions: mouse, in vivo
[7] = test system: IL-6; experiment: brain IL-6 levels after anesthesia/surgery; design: species or system mice; conditions: mouse, in vivo
Experimental: Brain Tissue Harvest, Lysis and Protein Quantification. Different mice will be used for the harvest of brain tissue. Levels of interleukin-6 (IL-6) and postsynaptic density (PSD)-95 in the cortex and hippocampus of mice will be assessed. The brain tissues (cortex and hippocampus) of the mice will be harvested immediately at the end of the anesthesia/surgery by decapitation. The harvested brain tissues will be homogenized on ice using immunoprecipitation buffer (10 mM Tris-HCl, pH 7.4, 150 mM NaCl, 2 mM EDTA, 0.5% Nonidet P-40) plus protease inhibitors ([…]). The lysates will be collected, centrifuged at 10,000 rpm for 5 minutes at 4° C., and quantified for total proteins by bicinchoninic acid (BCA) protein assay kit (Pierce, Iselin, NJ). The brain tissues will then be subjected to Western Blot.

[8] = test system: stimulated Jurkat cells; conditions: cited from earlier work
[9] = test system: anesthesia/surgery-induced cognitive impairment; experiment: Fear Conditioning Test (FCT); format: in vivo, mice; conditions: 52.8 mg/kg IP; Tone test 48 hours, Context test 7 days after anesthesia/surgery; FIG. 6A-6D
Description: (§1) 9-month-old C57BL/J6 female mice were adaptive in lab for 3 days. The mice were randomly assigned to the anesthesia/surgery group or control group by weight. […] Specifically, the inventors anesthetized each of the mice using 1.4% isoflurane in 100% oxygen in a transparent acrylic chamber. Fifteen minutes after the induction, the inventors moved the mouse out of the chamber. Isoflurane anesthesia was maintained via a cone device, and one 16-gauge needle was inserted into the cone near the nose of the mouse to monitor the concentration of isoflurane. The inventors made a longitudinal midline incision from the xiphoid to the 0.5 centimeter proximal pubic symphysis on the skin, abdominal muscles and peritoneum. The inventors then sutured the incision layer by layer with 5-0 Vicryl thread.
(§2) The inventors applied EMLA cream (2.5% lidocaine and 2.5% prilocaine) to the incision site at the end of the procedure, and then every eight hours until the euthanasia of the mice, to treat the pain associated with the incision. […]
The first tone test was performed at 90 minutes after the end of the pairing. […] The “freezing behavior” was analyzed by Any-Maze (freezing on threshold: 10; freezing off threshold: 20; minimum freezing duration: one second) (Stoelting). The percentage of freezing time was calculated by dividing the actual freezing time with the observed time (180 seconds).

[10] = target: cyclophilin A (Homo sapiens, UniProt P62937); conditions: cited from earlier work
[11] = test system: ATP; experiment: brain ATP measurement after anesthesia/surgery; format: in vivo, mice; conditions: 26.4 mg/kg IP
Description: as §1, with “thread. […]” for “thread.”
ATP Measurement. The levels of ATP in the cortex of mice (N=6 in each group) were determined by the ATP Colorimetric/Fluorometric Assay Kit following the protocol provided by the manufacturer (Abcam, Cambridge, MA). […] The amount of fluorescence will be measured and the levels of ATP in the experimental samples will be calculated from the standard curve made from samples containing a known amount of ATP.

[12] = test system: PSD-95; experiment: Western blot of brain PSD-95 after anesthesia/surgery; format: in vivo, mice; conditions: 26.4 mg/kg IP
Description: as §1, with “The inventors made a longitudinal midline incision from the xiphoid to the 0.5 centimeter proximal pubic symphysis on the skin, abdominal muscles and peritoneum. The inventors then sutured the incision layer by layer with 5-0 Vicryl thread.” left out
Brain Tissue Harvest, Lysis and Protein Quantification. […] Levels of interleukin-6 (IL-6) and postsynaptic density (PSD)-95 in the cortex and hippocampus of mice will be assessed. […] The lysates will be collected, centrifuged at 10,000 rpm for 5 minutes at 4° C., and quantified for total proteins by bicinchoninic acid (BCA) protein assay kit (Pierce, Iselin, NJ). […]
Western Blot Analysis. […] Western blot quantification was performed as described. Briefly, signal intensity was analyzed using a Bio-Rad (Hercules, CA) image program (Quantity One). The inventors quantified Western blots in two steps, first, the inventors used β-Actin levels to normalize (e.g., determine the ratio of PSD-95 to β-Actin amount) protein levels and control for loading differences in the total protein amount. […]

[13] = multiple animal species, cited from earlier work
[14] = test system: anesthesia/surgery-induced cognitive impairment; experiment: Barnes Maze Test; format: in vivo, mice; conditions: 26.4 mg/kg and 13.2 mg/kg IP; one week after anesthesia/surgery; FIG. 7A-7J
Description: as §1, §2
One week after anesthesia/surgery, animals were subjected to Barnes maze to test their spatial learning and memory. […] The latency and number of errors to find the target box during each trial were recorded with the assistance of ANY-Maze video tracking system.

[15] = test system: synaptophysin; experiment: Western blot of brain synaptophysin after anesthesia/surgery; format: in vivo, mice; conditions: 26.4 mg/kg IP
[16] = test system: cytochrome P450 1A2; conditions: cited from earlier work
[17] = test system: hepatitis C virus (HCV); conditions: two-drug combination, in vitro; cited from earlier work
[18] = test system: hepatitis C virus (HCV); conditions: in vitro; cited from earlier work

Chain of P-glycoprotein (P08183 whole entry): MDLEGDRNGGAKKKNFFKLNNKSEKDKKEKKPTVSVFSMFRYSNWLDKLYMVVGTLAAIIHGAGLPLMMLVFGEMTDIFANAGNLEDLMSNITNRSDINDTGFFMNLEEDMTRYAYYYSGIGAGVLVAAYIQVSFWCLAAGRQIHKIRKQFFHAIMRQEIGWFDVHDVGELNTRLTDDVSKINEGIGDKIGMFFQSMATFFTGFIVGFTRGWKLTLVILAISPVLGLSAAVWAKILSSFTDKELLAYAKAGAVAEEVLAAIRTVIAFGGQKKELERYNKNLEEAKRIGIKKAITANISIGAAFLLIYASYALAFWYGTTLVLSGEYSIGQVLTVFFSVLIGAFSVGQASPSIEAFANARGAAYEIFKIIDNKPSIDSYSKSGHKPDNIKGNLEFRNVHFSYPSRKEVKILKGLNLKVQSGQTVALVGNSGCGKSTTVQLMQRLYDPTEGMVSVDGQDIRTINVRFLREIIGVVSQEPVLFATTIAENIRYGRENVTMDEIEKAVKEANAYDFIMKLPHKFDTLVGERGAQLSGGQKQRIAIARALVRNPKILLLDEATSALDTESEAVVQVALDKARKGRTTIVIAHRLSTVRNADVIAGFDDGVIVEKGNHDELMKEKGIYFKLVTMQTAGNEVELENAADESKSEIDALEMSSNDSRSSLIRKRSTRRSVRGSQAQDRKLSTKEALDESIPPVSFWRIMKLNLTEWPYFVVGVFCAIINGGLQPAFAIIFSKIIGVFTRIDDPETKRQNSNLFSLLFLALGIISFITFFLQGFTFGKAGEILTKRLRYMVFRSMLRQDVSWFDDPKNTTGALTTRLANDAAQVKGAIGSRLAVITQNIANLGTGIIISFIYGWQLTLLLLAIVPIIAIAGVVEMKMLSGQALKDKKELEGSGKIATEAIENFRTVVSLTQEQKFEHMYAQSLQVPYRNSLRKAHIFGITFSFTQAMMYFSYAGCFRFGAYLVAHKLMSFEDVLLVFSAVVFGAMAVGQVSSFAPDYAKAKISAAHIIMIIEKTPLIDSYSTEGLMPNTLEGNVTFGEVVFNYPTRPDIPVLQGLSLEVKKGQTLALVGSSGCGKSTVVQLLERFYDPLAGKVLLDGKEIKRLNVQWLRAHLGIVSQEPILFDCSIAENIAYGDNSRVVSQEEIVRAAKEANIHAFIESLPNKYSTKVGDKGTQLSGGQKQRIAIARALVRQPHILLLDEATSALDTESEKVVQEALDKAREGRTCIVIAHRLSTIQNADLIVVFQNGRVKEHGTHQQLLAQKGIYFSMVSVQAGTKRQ
Chain of cyclophilin A (P62937 whole entry, species assumed): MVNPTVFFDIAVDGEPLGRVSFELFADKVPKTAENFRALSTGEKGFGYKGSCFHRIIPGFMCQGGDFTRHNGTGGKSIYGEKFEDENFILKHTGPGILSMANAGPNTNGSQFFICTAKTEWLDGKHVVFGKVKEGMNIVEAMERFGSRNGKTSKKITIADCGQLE

SMILES: C/C=C/C[C@@H](C)[C@@H](O)[C@H]1C(=O)N[C@@H](CC)C(=O)N(C)[C@H](SCCN(C)C)C(=O)N(C)[C@@H](CC(C)(C)O)C(=O)N[C@@H](C(C)C)C(=O)N(C)[C@@H](CC(C)C)C(=O)N[C@@H](C)C(=O)N[C@H](C)C(=O)N(C)[C@@H](CC(C)C)C(=O)N(C)[C@@H](CC(C)C)C(=O)N(C)[C@@H](C(C)C)C(=O)N1C [WS-635, (3S,6S,9S,12R,15S,18S,21S,24S,27R,30S,33S)-27-((2-(dimethylamino)ethyl)thio)-30-ethyl-33-((1R,2R,E)-1-hydroxy-2-methylhex-4-en-1-yl)-24-(2-hydroxy-2-methylpropyl)-6,9,18-tri isobutyl-3,21-diisopropyl-1,4,7,10,12,15,19,25,28-nonamethyl-1,4,7,10,13,16,19,22,25,28,31-undecaazacyclotritriacontan-2,5,8,11,14,17,20,23,26,29,32-undecaone]
- induction of cytochrome P450 3A4 [1]: did not induce
- inhibition of calcineurin phosphatase activity [2]: no detectable inhibition
- induction of cytochrome P450 2B6 [3]: did not induce
- inhibition of P-glycoprotein [4]: weak inhibitor
- substrate for P-glycoprotein [4]: poor substrate
- inhibition of interleukin-2 secretion compared with cyclosporine [5]: weaker inhibitor
- anesthesia/surgery-induced changes in brain levels of ROS [6]: attenuate
- anesthesia/surgery-induced changes in brain levels of IL-6 [7]: attenuate
- inhibition of interleukin-2 secretion compared with cyclosporine [8]: weaker inhibitor
- anesthesia/surgery-induced reduction in freezing time [9]: mitigated
- inhibition of peptidyl prolyl isomerase activity of cyclophilin A [10]: nanomolar concentrations
- anesthesia/surgery-induced decrease of ATP level in cortex ([11]; cortex, FIG. 5A): mitigate
- anesthesia/surgery-induced decrease of ATP level in hippocampus ([11]; hippocampus, FIG. 5B): mitigate
- anesthesia/surgery-induced decrease of PSD-95 level in cortex ([12]; cortex, FIG. 3): mitigate
- anesthesia/surgery-induced decrease of PSD-95 level in hippocampus ([12]; hippocampus, FIG. 4): mitigate
- oral bioavailability [13]: orally bioavailable
- blood and liver concentrations of parent drug versus 50% effective dose in replicon assay ([13]; oral): exceeded the 50% effective dose
- anesthesia/surgery-induced decrease in escape speed [14]: mitigated
- anesthesia/surgery-induced increase in escape latency [14]: mitigated
- anesthesia/surgery-induced decrease of synaptophysin level in cortex ([15]; cortex, FIG. 3): mitigate
- anesthesia/surgery-induced decrease of synaptophysin level in hippocampus ([15]; hippocampus, FIG. 4): mitigate
- induction of cytochrome P450 1A2 [16]: did not induce
- antiviral activity in combination with alpha interferon 2b [17]: synergistic antiviral activity
- antiviral activity in combination with ribavirin [17]: additive antiviral activity
- suppression of HCV replication [18]: potent suppression

Reference: US12226446B2, “WS-635 uses thereof in medicine” (WATERSTONE PHARMACEUTICALS(WUHAN) CO., LTD., priority 2019, dated 2025)
